The values that follow come from US10908147B2, “Methods of identifying modulators of olfactory receptors” (priority 2013, dated 2021).

In assay [1] the test system is cultured taste papillae cells obtained from mOR-EG-GFP ("mEUG") mice. As to the kind of experiment: Calcium imaging of cultured taste papillae cells from mOR-EG-GFP mice. Format: cell-based. As to conditions: fura-2 calcium imaging; odorants at optimal concentration 100 uM; mOR-EG-GFP mouse taste cell cultures. As to the method: (§1) Circumvallate and foliate papillae obtained from wild (m129), I7, M71 and Eugenol transgenic mice were isolated according to previously published procedure (Ozdener et al., 2006, cited above). Briefly, mouse taste papillae were removed by injecting the mixture of enzyme (pronase, 1 mg/ml Sigma and elastase 1 mg/ml Sigma) and immediately placed into an isolation solution followed by enzymatic digestion. Digested taste papillae tissue were then gently minced with a surgical razor and seeded on collagen type-1 coated coverslips and incubated at 36° C. in a humidified environment containing 5% CO2.
(§2) Changes in intracellular calcium levels in response to stimuli were measured. Cultured human fungiform and mice taste papillae cells were seeded on 15 mm coverslips. Cells were loaded with […] Fura-2 AM (Molecular Probes Inc.) in 10 mg/mL Pluronic® F127 (Molecular Probes Inc.) in modified Ringer solution for 1 hour at 36° C. […] Following image acquisition, regions of interest (ROIs) on the cells along with a background control region were selected to be measured for fluorescence ratios and intensity values. […] Ratio data for the cells were subsequently analyzed on Excel to determine which cells had responded with a significant change in intracellular calcium. […]

Assay [2] has as its system cultured taste papillae cells obtained from M129 mice. As to the kind of experiment: Calcium imaging of cultured wild mouse (m129) taste papillae cells. To be noted: fura-2 calcium imaging; odorants at optimal concentration 100 uM; wild (m129) mouse taste cell cultures. Format: cell-based. As to the method: as §1
Changes in intracellular calcium levels in response to stimuli were measured. Cultured human fungiform and mice taste papillae cells were seeded on 15 mm coverslips. Cells were loaded with […] Fura-2 AM (Molecular Probes Inc.) in 10 mg/mL Pluronic® F127 (Molecular Probes Inc.) in modified Ringer solution for 1 hour at 36° C. Individual odors, bitter mixture [phenylthiocarbamide (PTC, 2 mM) and Denatonium (2 mM), Salicin (5 mM)]; and Mix A [cAMP-producing odors in rat biochemical assays (Breer and Boekhoff, 1991, Chem. Senses, 16(1): 19-29, and Restrepo et al., 1993, J. Gen. Physiol., 102:907-924); both of which are incorporated herein by reference] (100 mM): hedione, geraniol, phenylethyl alcohol, citralva, citronellal, and eugenol,]; and Mix B [IP3-producing odors in rat biochemical assays (Breer and Boekhoff, 1991 and Restrepo et al 1993)] (100 mM): lyral, lilial, triethylamine, ethyl vanillin, isovaleric acid, and phenylethyl amine]) was diluted in Ringer, which was prepared with pH adjusted to 7.2 and osmolality adjusted to 300 mmol/kg. A coverslip was placed into a p4 chamber system with the delivery and waste pipes attached to the chamber. […] Following image acquisition, regions of interest (ROIs) on the cells along with a background control region were selected to be measured for fluorescence ratios and intensity values. […] Ratio data for the cells were subsequently analyzed on Excel to determine which cells had responded with a significant change in intracellular calcium. […]

For assay [3], the system named is immortalized human fungiform taste papillae (Ulduz) cells. The assay can be described thus: Odor response of immortalized human fungiform taste papillae (Ulduz) cells. In kind it is cell-based. As to the method: (§3) Changes in intracellular calcium levels in response to stimuli were measured. Cultured human fungiform and mice taste papillae cells were seeded on 15 mm coverslips. Cells were loaded with […] Fura-2 AM (Molecular Probes Inc.) in 10 mg/mL Pluronic® F127 (Molecular Probes Inc.) in modified Ringer solution for 1 hour at 36° C. Individual odors, bitter mixture [phenylthiocarbamide (PTC, 2 mM) and Denatonium (2 mM), Salicin (5 mM)]; and Mix A [cAMP-producing odors in rat biochemical assays (Breer and Boekhoff, 1991, Chem. Senses, 16(1): 19-29, and Restrepo et al., 1993, J. Gen. Physiol., 102:907-924); both of which are incorporated herein by reference] (100 mM): hedione, geraniol, phenylethyl alcohol, citralva, citronellal, and eugenol,]; and Mix B [IP3-producing odors in rat biochemical assays (Breer and Boekhoff, 1991 and Restrepo et al 1993)] (100 mM): lyral, lilial, triethylamine, ethyl vanillin, isovaleric acid, and phenylethyl amine]) was diluted in Ringer, which was prepared with pH adjusted to 7.2 and osmolality adjusted to 300 mmol/kg. A coverslip was placed into a p4 chamber system with the delivery and waste pipes attached to the chamber. This allowed for a stable and constant flow of liquid in and out of the chamber. The cells were visualized with an inverted florescence microscope using an excitation wavelength of 380 nm. Stimulus selection and delivery, focusing, and image acquisition were done using PTI software. Following image acquisition, regions of interest (ROIs) on the cells along with a background control region were selected to be measured for fluorescence ratios and intensity values. Cultured taste papillae cells were first washed for 1-3 min with Ringer, and then stimuli delivery was initiated. Each stimulus was delivered for 30 sec-1 min followed by an approximately 2 min wash out period with Ringer. Ratio data for the cells were subsequently analyzed on Excel to determine which cells had responded with a significant change in intracellular calcium. After calcium imaging, coverslips were fixed with 4% PFA for 10 min and washed 3× with PBS.
In a similar manner, immortalized human fungiform taste papillae (Ulduz) cells, responded to receptor specific odors, heptaldehyde, acetophenone, methyl cinnamon, eugenol and lyral.

Assay [4] concerns cultured fungiform taste papillae (HBO) cells obtained from human tongue. As to the kind of experiment: Calcium imaging of cultured human fungiform taste papillae (HBO) cells. Format: cell-based. As to conditions: fura-2 calcium imaging, odorants at optimal concentration 100 uM. As to the method:
The human fungiform papillae cells were cultured according to published protocols (Ozdener et al., Chem Senses. 2006 March; 31(3): 279-90; Ozdener et al., In Vitro Cellular & Developmental Biology—Animal. September 2011, 47(8): 513-14; each of which is incorporated herein by reference). Briefly, human fungiform taste papillae were removed and immediately placed into an isolation solution [26 mM NaHCO3, 2.5 mM NaH2PO4, 20 mM glucose, 65 mM NaCl, 20 mM KCl, and 1 mM ethylenediaminetetraacetic acid (EDTA)] followed by enzymatic digestion with pronase E and elastase. Digested fungiform papillae were then gently minced with a surgical razor and seeded on collagen type-1 coated coverslips and incubated at 36° C. in a humidified environment containing 5% CO2. The human fungiform taste papillae were cultured in Iscove's Modified Dulbecco's medium containing 10% fetal bovine serum, 1:5 ratio of MCDB 153, and a triple cocktail of antibiotics (100 U/mL/100 μg/mL, penicillin/streptomycin, and 0.5 μg/mL fungizone). Human fungiform taste papillae cells have been maintained in culture for a period of more than 1 year without loss of viability and with retention of the molecular and biochemical properties of acutely isolated taste cells.
as §3

Assay [5] deals with T1, olfactory receptor OR240 (also OR7D4) (Homo sapiens, UniProt Q8NG98).
T1 construct: expressed in transfected cells; host or cells: cultured human taste papillae (HBO) cells, Lipofectamine 2000, transient
T1 sequence (Q8NG98 1-312): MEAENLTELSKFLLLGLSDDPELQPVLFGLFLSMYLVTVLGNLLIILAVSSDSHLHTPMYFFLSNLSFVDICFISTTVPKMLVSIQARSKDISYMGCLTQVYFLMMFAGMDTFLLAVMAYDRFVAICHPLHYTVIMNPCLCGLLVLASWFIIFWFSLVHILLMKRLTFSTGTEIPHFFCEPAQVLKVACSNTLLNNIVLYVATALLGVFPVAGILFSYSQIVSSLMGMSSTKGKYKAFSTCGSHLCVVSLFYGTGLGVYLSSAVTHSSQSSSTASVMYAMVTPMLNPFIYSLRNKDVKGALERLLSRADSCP
As to the kind of experiment: Calcium imaging of HBO cells transiently transfected with OR7D4. Format: cell-based. As to conditions: HBO cells transfected with OR7D4/OR240 plus chaperone DNA (RTP1S and M3); 30 or 100 micromolar.

For assay [6], the system named is cultured taste papillae cells obtained from mOR-M71-GFP ("M71") mice. As to the kind of experiment: Calcium imaging of cultured taste papillae cells from mOR-M71-GFP mice. To be noted: fura-2 calcium imaging; odorants at optimal concentration 100 uM; mOR-M71-GFP mouse taste cell cultures. Format: cell-based. The method, then: as §1, §2
Assay [7] deals with olfactory receptor ORS6 (also Olfr544). The assay can be described thus: Calcium imaging of HBO cells transiently transfected with ORS6. In kind it is cell-based, mouse. To be noted: HBO cells transfected with ORS6 plus chaperone DNA (RTP1S and M3); 30 or 100 micromolar.

The structures appear in SMILES notation. Entries after “also recorded” stand apart in the source; their conditions may differ. Like-named read-outs stand apart in the source and are kept apart here.

In the case of `C=CCc1ccc(O)c(OC)c1` [eugenol], the figures for the “response to stimulus (change in intracellular calcium)” value in assay [1] and in assay [2] were “respond; also recorded: responsive” and “sensitive”, respectively. Moreover, the “response to receptor specific odor” value in assay [3] is given as “respond”. Also, the “response to stimulus (change in intracellular calcium [Ca2+]i)” value in assay [4] was “sensitive”.

For the molecule `O=c1ccc2ccccc2o1` [coumarin], in assay [4], the “response to stimulus (change in intracellular calcium [Ca2+]i)” value was “sensitive”.

For the molecule `CC(C)(O)CCCC1=CCC(C=O)CC1` (stereo not shown) [lyral], in assay [3], the “response to receptor specific odor” value is “respond”. In addition, the “response to stimulus (change in intracellular calcium [Ca2+]i)” value in assay [4] is listed as “sensitive”. On to `C[C@@]12CCC[C@H]1[C@@H]1CC[C@H]3CC(=O)CC[C@]3(C)[C@H]1CC2` [Androstanone], for which the “calcium response to receptor specific odor” value in assay [5] is “response occurred”. For `CCCCCC(=O)O` [hexanoic acid], the “response to stimulus (change in intracellular calcium [Ca2+]i)” value in assay [4] is given as “sensitive”. Regarding `CC(=O)c1ccccc1` [acetophenone], the “response to stimulus (change in intracellular calcium)” value is reported as “responded; also recorded: sensitive” in assay [2] and “exhibited a response; also recorded: respond; also recorded: responsive” in assay [6]. In addition, in assay [3], the “response to receptor specific odor” value is given as “respond”. For the same molecule, the “response to stimulus (change in intracellular calcium [Ca2+]i)” value in assay [4] was “sensitive”. `O=Cc1ccccc1` [benzaldehyde]: the “response to stimulus (change in intracellular calcium)” value in assay [2] is on record as “responded; also recorded: sensitive”; in assay [6] it was “respond”. `CCCCCCC=O` [heptanal]: the “response to receptor specific odor” value in assay [3] (listed as heptaldehyde) is on record as “respond”. For the same molecule, the “response to stimulus (change in intracellular calcium [Ca2+]i)” value in assay [4] is on record as “sensitive”. Consider `COC(=O)/C=C/c1ccccc1` [methyl cinnamon], for which the “response to receptor specific odor” value in assay [3] is given as “respond”. On to `O=C(O)CCCCCCCC(=O)O` [Nonanedionic acid], for which the “calcium response to receptor specific odor” value in assay [7] is recorded as “response occurred”.
